Experimental data: PMC11407620, “Repurposing auranofin and meclofenamic acid as energy-metabolism inhibitors and anti-cancer drugs” (PLOS ONE, 2024)

Tests used:
[1] = test system: AS-30D hepatoma mitochondria; assay: Oxygen consumption of isolated mitochondria; format: biochemical, rat; design: Net State 3 oxygen consumption rate: unit not given here; conditions: for Net State 3 (State 3 –pseudoState 4) oxygen consumption rate / Pseudo State 4 oxygen consumption rate / RC (State 3/ State 4), respiratory control / State 3 oxygen consumption rate / State 4 oxygen consumption rate / Net State 3 oxygen consumption rate / RC (State 3/ State 4): Hepatoma mitochondria
Protocol: AS-30D hepatocarcinoma cells were propagated in the peritoneal cavity of 200–250 g weight female Wistar rats by intra-peritoneal inoculation of 3 mL of a cellular suspension containing approximately 4 × 10^8 cells/mL [36]. After 5–6 days, the rats were sacrificed by cervical dislocation and AS-30D ascites liquid was extracted from peritoneal area with a sterile syringe and collected in 50 mL-plastic tubes. The hepatoma cells were harvested by centrifugation and washed once by centrifugation in KR buffer. For mitochondria isolation from AS-30D hepatoma, cells were permeabilized with digitonin (Sigma Aldrich, CA, USA) at 10–40 μg/mg cellular protein concentration.
(§1) Respiration of AS-30D, liver and heart mitochondria (1 mg protein/mL) was assayed oxygraphically with a Clark-type O2 electrode in KME (120 mM KCl, 20 mM Mops, 1 mM EGTA) buffer pH 7.2 plus 2 mM KH2PO4, and different oxidizable substrates (as indicated in Results). For state 3 respiration, 600 nmol ADP were added. Mitochondria were incubated at 37°C with Aur and MA for 30–60 s before substrates were added. At the end of each respiratory measurement, dithionite was added to get the chemical zero oxygen signal.
(§2) Isolated mitochondria (1mg protein/mL) were incubated in KME buffer (120 mM KCl, 20 mM MOPS, 1 mM EGTA) pH 7.20 plus 2 mM KH2PO4 and the indicated oxidizable substrates. For state 3 (ADP-stimulated) respiration, 300-600 nmol ADP were added. RC, respiratory control; n=3. To get the maximal reduction of molecular oxygen (zero oxygen concentration), sodium dithionite (Na2O4S2) was added at the end of each measurement.

Rat Liver Mitochondria = assay: Oxygen consumption of isolated mitochondria; format: biochemical; conditions: for Net State 3 oxygen consumption rate / Pseudo State 4 oxygen consumption rate / RC, respiratory control / State 3 oxygen consumption rate / State 4 oxygen consumption rate / RC: Rat Liver Mitochondria
Protocol: Rat liver (RLM) and heart (RHM) mitochondria were isolated as described previously by differential centrifugation.
as §1, §2

[2] = test system: HeLa, MDA-MB-231 and MDA-MB-468 cells; assay: Energy metabolism pathway fluxes in intact cancer cells, pooled; format: cell-based, human; conditions: 24 h
Protocol: For glycolysis flux, cells (3 mg protein/mL) were incubated in KR buffer. Glycolysis was started by adding 5 mM external glucose (Sigma-Aldrich, MO, USA), and cellular samples were withdrawn after 0 and 10 min of incubation at 37°C under smooth orbital shaking. At the indicated times, the cells were rapidly mixed with 3% (w/v) ice-cold perchloric acid and centrifuged. The supernatants were neutralized with 1N KOH/100mM Tris. To rule out lactate production by glutaminolysis, cells were also incubated with 10 mM 2-deoxyglucose (Sigma-Aldrich, MO, USA). Lactate was determined by a standard method with lactate dehydrogenase (Roche, Mannheim, Germany) following the NADH formation at 340 nm.
For oxidative phosphorylation (OxPhos) flux, cells (2–5 mg protein/mL) were incubated at 37°C in air saturated KR medium plus 5 mM glucose. […] The net OxPhos rate was determined by using a Clark type electrode, as previously described and by using a high-resolution respirometer (Oroboros Instruments, Innsbruck, Austria) at 37°C. The contribution of OxPhos and glycolysis to the cellular ATP supply was determined, respectively, from the net OxPhos rate (oligomycin-sensitive respiration) multiplied by the ATP/O or P»/O2 ratio that corresponds to 2.5 or 5, and from the rate of lactate production, assuming a stoichiometry of 1 mol of ATP produced per 1 mol of lactate produced.

[3] = 5 mM Glutamate/0.1 mM Malate, 10 μM Aur
[4] = 5 mM Glutamate/0.1 mM Malate, 25 μM Aur
[5] = 5 mM Glutamate/0.1 mM Malate, 50 μM Aur
[6] = 5 mM Glutamate/0.1 mM Malate, 100 μM Aur
[7] = Succinate 0.5 mM + Rotenone 2 µM, 10 µM Aur
[8] = Succinate 0.5 mM + Rotenone 2 µM, 25 µM Aur
[9] = Succinate 0.5 mM + Rotenone 2 µM, 50 µM Aur
[10] = Succinate 0.5 mM + Rotenone 2 µM, 100 µM Aur
[11] = 5 mM Glutamate/5 mM Malate, 10 μM Aur
[12] = 5 mM Glutamate/5 mM Malate, 25 μM Aur
[13] = 5 mM Glutamate/5 mM Malate, 50 μM Aur
[14] = 5 mM Glutamate/5 mM Malate, 100 μM Aur
[15] = 5 mM Glutamate/0.1 mM Malate, 5 μM MA
[16] = 5 mM Glutamate/0.1 mM Malate, 10 μM MA
[17] = 5 mM Glutamate/5 mM Malate, 10 μM MA
[18] = 5 mM Glutamate/5 mM Malate, 50 μM MA

Structure (SMILES): CC(=O)OC[C@H]1O[C@@H]([S-])[C@H](OC(C)=O)[C@@H](OC(C)=O)[C@@H]1OC(C)=O.CCP(CC)CC.[Au+] [Aur, [1-(thio-κS)-β-D-glucopyranose-2,3,4,6-tetraacetyl] (triethylphosphine)-gold]
- Net State 3 (State 3 –pseudoState 4) oxygen consumption rate [1, 3]: 91.5 ± 8 nmol O2 min^-1 mg protein^-1
- Pseudo State 4 oxygen consumption rate [1, 3]: 33.5 ± 2 nmol O2 min^-1 mg protein^-1
- RC (State 3/ State 4), respiratory control [1, 3]: 2.8 ± 0.5
- State 3 oxygen consumption rate [1, 3]: 125 ± 9 nmol O2 min^-1 mg protein^-1
- State 4 oxygen consumption rate [1, 3]: 44 ± 6 nmol O2 min^-1 mg protein^-1
- Net State 3 (State 3 –pseudoState 4) oxygen consumption rate [1, 4]: 78 ± 29 nmol O2 min^-1 mg protein^-1
- Pseudo State 4 oxygen consumption rate [1, 4]: 37 ± 5 nmol O2 min^-1 mg protein^-1
- RC (State 3/ State 4), respiratory control [1, 4]: 2.6 ± 0.5
- State 3 oxygen consumption rate [1, 4]: 114± 31 nmol O2 min^-1 mg protein^-1
- State 4 oxygen consumption rate [1, 4]: 43 ± 3 nmol O2 min^-1 mg protein^-1
- Net State 3 (State 3 –pseudoState 4) oxygen consumption rate [1, 5]: 80 ± 39 nmol O2 min^-1 mg protein^-1
- Pseudo State 4 oxygen consumption rate [1, 5]: 52.5 ± 11 nmol O2 min^-1 mg protein^-1
- RC (State 3/ State 4), respiratory control [1, 5]: 2.2 ± 0.5
- State 3 oxygen consumption rate [1, 5]: 133± 46 nmol O2 min^-1 mg protein^-1
- State 4 oxygen consumption rate [1, 5]: 74 ± 28 nmol O2 min^-1 mg protein^-1
- Net State 3 (State 3 –pseudoState 4) oxygen consumption rate [1, 6]: 68 ± 41 nmol O2 min^-1 mg protein^-1
- Pseudo State 4 oxygen consumption rate [1, 6]: 67 ± 21.5 nmol O2 min^-1 mg protein^-1
- RC (State 3/ State 4), respiratory control [1, 6]: 1.5 ± 0.4
- State 3 oxygen consumption rate [1, 6]: 125 ± 61 nmol O2 min^-1 mg protein^-1
- State 4 oxygen consumption rate [1, 6]: 79 ± 30 nmol O2 min^-1 mg protein^-1
- Net State 3 oxygen consumption rate [1, 7]: 63 ± 13
- Pseudo State 4 oxygen consumption rate [1, 7]: 80 ± 10
- RC (State 3/ State 4) [1, 7]: 1.9 ± 0.5
- State 3 oxygen consumption rate [1, 7]: 143 ± 18
- State 4 oxygen consumption rate [1, 7]: 73 ± 7.5
- Net State 3 oxygen consumption rate [1, 8]: 56.5 ± 21
- Pseudo State 4 oxygen consumption rate [1, 8]: 90 ± 31
- RC (State 3/ State 4) [1, 8]: 1.7 ± 0.1
- State 3 oxygen consumption rate [1, 8]: 147± 23
- State 4 oxygen consumption rate [1, 8]: 84 ± 15
- Net State 3 oxygen consumption rate [1, 9]: 58.3 ± 63
- Pseudo State 4 oxygen consumption rate [1, 9]: 83 ± 23
- RC (State 3/ State 4) [1, 9]: 1.9 ± 0.3
- State 3 oxygen consumption rate [1, 9]: 141.5± 65
- State 4 oxygen consumption rate [1, 9]: 70 ± 28
- Net State 3 oxygen consumption rate [1, 10]: 26 ± 46
- Pseudo State 4 oxygen consumption rate [1, 10]: 82 ± 34
- RC (State 3/ State 4) [1, 10]: 1.8 ± 0.4
- State 3 oxygen consumption rate [1, 10]: 104 ± 24
- State 4 oxygen consumption rate [1, 10]: 56.5 ± 7
- increase of state 4 respiration rates (times) ([1]; hepatoma mitochondria, GM): 2.3–2.4 times
- inhibition of state 3 respiration rates (Rat Liver Mitochondria; RLM): 20–54%
- increase of state 4 respiration rates (times) (Rat Liver Mitochondria; RLM, GM): 1.8–1.9 times
- Net State 3 oxygen consumption rate (Rat Liver Mitochondria; [11]): 123.5 ± 59 nmol O2 min^-1 mg protein^-1
- Pseudo State 4 oxygen consumption rate (Rat Liver Mitochondria; [11]): 27.5 ± 3 nmol O2 min^-1 mg protein^-1
- RC, respiratory control (Rat Liver Mitochondria; [11]): 8 ± 1
- State 3 oxygen consumption rate (Rat Liver Mitochondria; [11]): 151 ± 61.5 nmol O2 min^-1 mg protein^-1
- State 4 oxygen consumption rate (Rat Liver Mitochondria; [11]): 18 ± 5 nmol O2 min^-1 mg protein^-1
- Net State 3 oxygen consumption rate (Rat Liver Mitochondria; [12]): 62 nmol O2 min^-1 mg protein^-1
- Pseudo State 4 oxygen consumption rate (Rat Liver Mitochondria; [12]): 27 (2) nmol O2 min^-1 mg protein^-1
- RC, respiratory control (Rat Liver Mitochondria; [12]): 6 (2)
- State 3 oxygen consumption rate (Rat Liver Mitochondria; [12]): 89 (2) nmol O2 min^-1 mg protein^-1
- State 4 oxygen consumption rate (Rat Liver Mitochondria; [12]): 15 (2) nmol O2 min^-1 mg protein^-1
- Net State 3 oxygen consumption rate (Rat Liver Mitochondria; [13]): 48 nmol O2 min^-1 mg protein^-1
- Pseudo State 4 oxygen consumption rate (Rat Liver Mitochondria; [13]): 30.5 (2) nmol O2 min^-1 mg protein^-1
- RC, respiratory control (Rat Liver Mitochondria; [13]): 5.5 (2)
- State 3 oxygen consumption rate (Rat Liver Mitochondria; [13]): 78.5 (2) nmol O2 min^-1 mg protein^-1
- State 4 oxygen consumption rate (Rat Liver Mitochondria; [13]): 16 (2) nmol O2 min^-1 mg protein^-1
- Net State 3 oxygen consumption rate (Rat Liver Mitochondria; [14]): 25 nmol O2 min^-1 mg protein^-1
- Pseudo State 4 oxygen consumption rate (Rat Liver Mitochondria; [14]): 48 (2) nmol O2 min^-1 mg protein^-1
- RC, respiratory control (Rat Liver Mitochondria; [14]): 3 (2)
- State 3 oxygen consumption rate (Rat Liver Mitochondria; [14]): 73 (2) nmol O2 min^-1 mg protein^-1
- State 4 oxygen consumption rate (Rat Liver Mitochondria; [14]): 26 (2) nmol O2 min^-1 mg protein^-1
- Net State 3 oxygen consumption rate (Rat Liver Mitochondria; [7]): 116 (2)
- Pseudo State 4 oxygen consumption rate (Rat Liver Mitochondria; [7]): 33 (2)
- RC (Rat Liver Mitochondria; [7]): 5.4 (2)
- State 3 oxygen consumption rate (Rat Liver Mitochondria; [7]): 150 (2)
- State 4 oxygen consumption rate (Rat Liver Mitochondria; [7]): 68 (2)
- Net State 3 oxygen consumption rate (Rat Liver Mitochondria; [8]): 88 (2)
- Pseudo State 4 oxygen consumption rate (Rat Liver Mitochondria; [8]): 73 (2)
- RC (Rat Liver Mitochondria; [8]): 4.8 (2)
- State 3 oxygen consumption rate (Rat Liver Mitochondria; [8]): 161 (2)
- State 4 oxygen consumption rate (Rat Liver Mitochondria; [8]): 39.5 (2)
- Net State 3 oxygen consumption rate (Rat Liver Mitochondria; [9]): 36.5 (2)
- Pseudo State 4 oxygen consumption rate (Rat Liver Mitochondria; [9]): 63.5 (2)
- RC (Rat Liver Mitochondria; [9]): 2.3 (2)
- State 3 oxygen consumption rate (Rat Liver Mitochondria; [9]): 95.5 (2)
- State 4 oxygen consumption rate (Rat Liver Mitochondria; [9]): 40.5 (2)
- Net State 3 oxygen consumption rate (Rat Liver Mitochondria; [10]): 20 (2)
- Pseudo State 4 oxygen consumption rate (Rat Liver Mitochondria; [10]): 59 (2)
- RC (Rat Liver Mitochondria; [10]): 2.5 (2)
- State 3 oxygen consumption rate (Rat Liver Mitochondria; [10]): 64 (2)
- State 4 oxygen consumption rate (Rat Liver Mitochondria; [10]): 56 (2)
- inhibition of OxPhos and glycolysis fluxes ([2]; HeLa and MDA-MB-231 cells, Aur at IC50): 48–75%

Structure (SMILES): Cc1ccc(Cl)c(Nc2ccccc2C(=O)O)c1Cl [MA, Meclofenamic acid]
- Net State 3 oxygen consumption rate [1, 15]: 26 ± 13
- Pseudo State 4 oxygen consumption rate [1, 15]: 19 ± 4 (3)
- RC (State 3/ State 4) [1, 15]: 1 (3)
- State 3 oxygen consumption rate [1, 15]: 45 ± 10 (3)
- State 4 oxygen consumption rate [1, 15]: 45 ± 10 (3)
- Net State 3 oxygen consumption rate [1, 16]: 0
- RC (State 3/ State 4) [1, 16]: 1 (3)
- State 3 oxygen consumption rate [1, 16]: 36 ± 7 (3)
- State 4 oxygen consumption rate [1, 16]: 36 ± 7 (3)
- Pseudo State 4 oxygen consumption rate ([1]; 5 mM Glutamate/0.1 mM Malate, 10 μM MA, in nmol O2/min/mg protein): 45 ± 15 (3)
- Net State 3 oxygen consumption rate (Rat Liver Mitochondria; [17]): 81 (1)
- Pseudo State 4 oxygen consumption rate (Rat Liver Mitochondria; [17]): 32.5 (1)
- RC (Rat Liver Mitochondria; [17]): 8.6 (1)
- State 3 oxygen consumption rate (Rat Liver Mitochondria; [17]): 113.5 (1)
- State 4 oxygen consumption rate (Rat Liver Mitochondria; [17]): 13.5 (1)
- Net State 3 oxygen consumption rate (Rat Liver Mitochondria; [18]): 61 ± 27
- Pseudo State 4 oxygen consumption rate (Rat Liver Mitochondria; [18]): 42 ± 15 (3)
- RC (Rat Liver Mitochondria; [18]): 2.1 ± 0.2 (3)
- State 3 oxygen consumption rate (Rat Liver Mitochondria; [18]): 102 ± 23 (3)
- State 4 oxygen consumption rate (Rat Liver Mitochondria; [18]): 50 ± 17 (3)
- inhibition of OxPhos flux ([2]; MA 6–50 μM (Table 2)): 31–66%
